Here are results for 23 compounds from US20230023559A1, “ARYLMETHYLENE HETEROCYCLIC COMPOUNDS AS KV1.3 POTASSIUM SHAKER CHANNEL BLOCKERS” (D. E. Shaw Research, LLC, priority 2019, published 2023).

The target of one test is T1, Kv1.3 potassium channel (Homo sapiens, UniProt P22001).
T1 construct: expressed in transfected cells
The experiment in a line: Kv1.3 potassium channel blocker activity, automated whole-cell patch clamp (Patchliner). The class given is cell-based. The following applies: CHO-K1 cells stably expressing Kv1.3; whole cell current inhibition; read-out: Kv1.3_IC50. The method, boiled down:
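Peak-current block was recorded on stable Kv1.3 CHO-K1 cells by automated patch clamp, stepping from a −90 mV holding potential to +40 mV for 100 ms at 0.1 Hz with 10 s breaks between trains. Online P/4 leak subtraction, 10 kHz sampling; compound exposure under 10 s per train.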

The target of a further test is hERG channel (Homo sapiens, UniProt Q12809). As to the kind of experiment: hERG electrophysiology, automated whole-cell patch clamp (Patchliner).

Some results are limits rather than exact numbers.

T1 sequence (P22001 whole entry): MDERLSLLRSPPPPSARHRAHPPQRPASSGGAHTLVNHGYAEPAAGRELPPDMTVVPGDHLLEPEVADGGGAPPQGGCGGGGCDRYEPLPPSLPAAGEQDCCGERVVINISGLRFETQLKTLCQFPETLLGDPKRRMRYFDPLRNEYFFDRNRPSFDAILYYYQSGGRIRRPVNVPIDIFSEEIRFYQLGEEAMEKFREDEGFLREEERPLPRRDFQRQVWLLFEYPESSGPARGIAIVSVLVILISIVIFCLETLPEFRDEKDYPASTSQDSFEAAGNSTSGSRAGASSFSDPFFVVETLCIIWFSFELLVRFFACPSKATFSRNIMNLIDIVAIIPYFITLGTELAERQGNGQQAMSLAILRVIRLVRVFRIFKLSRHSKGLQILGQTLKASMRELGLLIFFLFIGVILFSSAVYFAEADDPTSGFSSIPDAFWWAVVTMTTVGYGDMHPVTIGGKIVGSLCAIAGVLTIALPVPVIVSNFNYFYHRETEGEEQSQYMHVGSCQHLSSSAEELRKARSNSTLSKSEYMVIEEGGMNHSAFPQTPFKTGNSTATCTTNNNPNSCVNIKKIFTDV
Chain of hERG channel (Q12809 whole entry): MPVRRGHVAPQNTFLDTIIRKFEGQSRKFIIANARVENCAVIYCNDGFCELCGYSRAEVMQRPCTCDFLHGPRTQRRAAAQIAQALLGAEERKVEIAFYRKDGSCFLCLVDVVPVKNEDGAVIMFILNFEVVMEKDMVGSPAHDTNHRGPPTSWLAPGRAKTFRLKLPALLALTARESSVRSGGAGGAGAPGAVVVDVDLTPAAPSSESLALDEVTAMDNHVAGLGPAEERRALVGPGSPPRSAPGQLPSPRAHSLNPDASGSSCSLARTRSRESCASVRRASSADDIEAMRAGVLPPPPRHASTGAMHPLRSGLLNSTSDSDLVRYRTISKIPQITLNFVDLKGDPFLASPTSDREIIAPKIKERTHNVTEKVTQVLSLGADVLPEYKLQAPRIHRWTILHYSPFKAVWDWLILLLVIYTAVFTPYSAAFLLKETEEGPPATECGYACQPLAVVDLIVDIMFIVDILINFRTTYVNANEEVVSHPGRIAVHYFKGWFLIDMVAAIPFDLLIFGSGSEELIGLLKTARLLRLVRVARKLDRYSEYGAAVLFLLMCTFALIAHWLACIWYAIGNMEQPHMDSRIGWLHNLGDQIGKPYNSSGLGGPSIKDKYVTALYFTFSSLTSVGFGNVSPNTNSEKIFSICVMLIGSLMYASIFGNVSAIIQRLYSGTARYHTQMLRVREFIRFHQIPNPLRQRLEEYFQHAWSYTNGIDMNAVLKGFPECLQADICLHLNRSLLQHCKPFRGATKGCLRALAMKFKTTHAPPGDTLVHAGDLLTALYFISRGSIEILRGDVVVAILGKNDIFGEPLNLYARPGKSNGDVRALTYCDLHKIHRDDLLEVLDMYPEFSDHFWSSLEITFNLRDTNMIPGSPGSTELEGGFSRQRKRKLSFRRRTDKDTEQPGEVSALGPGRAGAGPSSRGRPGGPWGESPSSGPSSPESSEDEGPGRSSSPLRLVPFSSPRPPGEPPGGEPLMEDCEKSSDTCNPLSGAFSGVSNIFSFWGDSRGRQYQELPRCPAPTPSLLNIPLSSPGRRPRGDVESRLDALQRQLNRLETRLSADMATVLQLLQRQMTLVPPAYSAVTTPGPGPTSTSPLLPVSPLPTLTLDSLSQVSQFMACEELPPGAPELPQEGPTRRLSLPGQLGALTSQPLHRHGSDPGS

Regarding `Cc1cc(O)c([C@H](N)C2CCN(C(=O)c3ccc(=O)n(CCO)c3)CC2)cc1Cl` [Compound 249, 5-[4-[(R)-amino (5-chloro-2-hydroxy-4-methylphenyl)methyl]piperidine-1-carbonyl]-1-(2-hydroxyethyl) pyridin-2-one trifluoroacetic acid], the IC50 at Kv1.3 potassium channel is under 0.5 µM; against hERG channel, over 30 µM.
The like results for `C[C@H](N)C(=O)N1CCC([C@H](N)c2cc(Cl)c(Cl)cc2O)CC1` (single isomer, unassigned) [Compound 75] were, in that order, under 10 µM and over 30 µM.
`N[C@@H](c1cc(Cl)c(Cl)cc1O)[C@H]1CCNC1` (single isomer, unassigned; diastereoisomer 1) [Compound 32, 2-(amino(pyrrolidin-3-yl)methyl)-4,5-dichlorophenol Trifluoroacetic Acid Diastereoisomer 1]: the half-maximal inhibitory concentration (IC50) on Kv1.3 potassium channel is under 10 µM; at hERG channel, over 30 µM.
The like results for `C[C@@H](O)[C@H](O)C(=O)N1CCC([C@@H](N)c2cc(Cl)c(Cl)cc2O)CC1` [Compound 208, 1-(4-((R)-amino(4,5-dichloro-2-hydroxyphenyl)methyl)piperidin-1-yl)-2,3-dihydroxybutan-1-one trifluoroacetic acid] were, in that order, under 0.5 µM and over 30 µM.
For `N[C@@H](c1cc(Cl)c(Cl)cc1O)C1CCN(S(=O)(=O)C2CCNC2)CC1` (stereo partly drawn) [Compound 110, 2-[(R)-amino[1-(pyrrolidine-3-sulfonyl)piperidin-4-yl]methyl]-4,5-dichlorophenol], the IC50 is under 0.5 µM on Kv1.3 potassium channel and over 30 µM against hERG channel.
With `Nc1cc(C(=O)N2CCC([C@@H](N)c3cc(Cl)c(Cl)cc3O)CC2)ccn1` [Compound 301, 2-[(R)-amino[1-(2-aminopyridine-4-carbonyl)piperidin-4-yl]methyl]-4,5-dichlorophenol trifluoroacetic acid], the results for the IC50 at Kv1.3 potassium channel and against hERG channel were under 0.5 µM and over 30 µM, respectively.
The like results for `N[C@@H](c1cc(Cl)c(Cl)cc1O)C1CCN(C(=O)[C@@H]2CNC(=O)OC2)CC1` (single isomer, unassigned; isomer 2) [Compound 210] were, in that order, under 0.5 µM and over 30 µM.
The like results for `CNC(c1cc(Cl)c(Cl)cc1O)C1CCN(C(=O)[C@H](O)CO)CC1` (stereo partly drawn) [Compound 196, (2R)-1-[4-[(4,5-dichloro-2-hydroxyphenyl)(methylamino)methyl]piperidin-1-yl]-2,3-dihydroxypropan-1-one] were, in that order, under 10 µM and over 30 µM.
For `N[C@@H](c1cc(Cl)c(Cl)cc1O)C1CCN(C(=O)[C@H]2CNC(=O)C2)CC1` (single isomer, unassigned; isomer 2) [Compound 246] the same measures were under 0.5 µM and over 30 µM.
Turning to `NC(c1cc(Cl)c(Cl)cc1O)C1CCN(C(=O)[C@H]2CCNC2)CC1` (stereo partly drawn) [Compound 63, (4-(amino(4,5-dichloro-2-hydroxyphenyl)methyl)piperidin-1-yl)((S)-pyrrolidin-3-yl)methanone Trifluoroacetic Acid], the half-maximal inhibitory concentration (IC50) on Kv1.3 potassium channel is under 0.5 µM; against hERG channel, over 30 µM.
The like results for `N[C@@H](c1cc(Cl)c(Cl)cc1O)C1CCNCC1` (single isomer, unassigned) [Compound 16, Trifluoroacetic Acid] were, in that order, under 0.5 µM and over 30 µM.
Turning to `CN1C(=O)CC[C@@H]1C(=O)N1CCC([C@@H](N)c2cc(Cl)c(Cl)cc2O)CC1` [Compound 216, (5R)-5-[4-[(R)-amino(4,5-dichloro-2-hydroxyphenyl)methyl]piperidine-1-carbonyl]-1-methylpyrrolidin-2-one], the half-inhibitory concentration (IC50) is under 10 µM on Kv1.3 potassium channel and over 30 µM against hERG channel.
The like results for `NC(c1cc(Cl)c(Cl)cc1O)C1CCN(C(=O)[C@@H]2CCNC2)CC1` (stereo partly drawn) [Compound 66, (4-(amino(4,5-dichloro-2-hydroxyphenyl)methyl)piperidin-1-yl)((R)-pyrrolidin-3-yl)methanone Trifluoroacetic Acid] were, in that order, under 0.5 µM and over 30 µM.
With `Nc1ccnc(N2CCC([C@@H](N)c3cc(Cl)c(Cl)cc3O)CC2)c1` [Compound 150, (R)-2-(amino(1-(4-aminopyridin-2-yl)piperidin-4-yl)methyl)-4,5-dichlorophenol Trifluoroacetic Acid], the IC50 on Kv1.3 potassium channel was under 0.5 µM; against hERG channel, under 30 µM.
For `C[C@@H](N)C(=O)N1CCC([C@@H](N)c2cc(Cl)c(Cl)cc2O)CC1` (single isomer, unassigned) [Compound 69] the same measures were under 0.5 µM and over 30 µM.
The like results for `NC(c1cc(Cl)c(Cl)cc1O)C1CCN(c2ncco2)CC1` (stereo not shown) [Compound 74, 2-[amino[1-(1,3-oxazol-2-yl)piperidin-4-yl]methyl]-4,5-dichlorophenol] were, in that order, under 10 µM and under 30 µM.
As for `Cc1cc(O)c([C@H](N)C2CCN(C(=O)C3CCS(=O)(=O)CC3)CC2)cc1Cl` [Compound 247, (R)-(4-(amino(5-chloro-2-hydroxy-4-methylphenyl)methyl)piperidin-1-yl)(1,1-dioxidotetrahydro-2H-thiopyran-4-yl)methanone trifluoroacetic acid], the IC50 at Kv1.3 potassium channel is under 0.5 µM; at hERG channel, over 30 µM.
With `Cn1ccc(N2CCC([C@@H](N)c3cc(Cl)c(Cl)cc3O)CC2)cc1=O` [Compound 297, 4-[4-[(R)-amino(4,5-dichloro-2-hydroxyphenyl)methyl]piperidin-1-yl]-1-methylpyridin-2-one], the half-inhibitory concentration (IC50) is under 0.5 µM at Kv1.3 potassium channel and under 30 µM against hERG channel.
For `N[C@@H](c1cc(Cl)c(Cl)cc1O)[C@@H]1CCC(=O)NC1` (single isomer, unassigned; diastereoisomer 2) [Compound 39, 5-(amino(4,5-dichloro-2-hydroxyphenyl)methyl)piperidin-2-one Diastereoisomer 2] the same measures were under 10 µM and over 30 µM.
On to `N[C@@H](c1cc(Cl)c(Cl)cc1O)C1CCN(C(=O)N2CC(O)C2)CC1` [Compound 148, 1-[4-[(R)-amino(4,5-dichloro-2-hydroxyphenyl)methyl]piperidine-1-carbonyl]azetidin-3-ol Trifluoroacetic Acid], for which the figures for the IC50 on Kv1.3 potassium channel and against hERG channel were under 0.5 µM and over 30 µM, respectively.
The like results for `N[C@@H](c1cc(Cl)c(Cl)cc1O)C1CCN(C(=O)c2cccc(=O)[nH]2)CC1` [Compound 178, (R)-6-(4-(amino(4,5-dichloro-2-hydroxyphenyl)methyl)piperidine-1-carbonyl) pyridin-2(1H)-one formic acid] were, in that order, under 0.5 µM and over 30 µM.
In the case of `N[C@@H](c1cc(Cl)c(Cl)cc1O)C1CCN(C(=O)[C@@H]2CNC(=O)C2)CC1` (single isomer, unassigned; isomer 1) [Compound 296], the IC50 is under 0.5 µM on Kv1.3 potassium channel and over 30 µM against hERG channel.
With `Cc1cc(O)c([C@H](N)C2CCN(C(=O)[C@H](O)CO)CC2)cc1Cl` [Compound 190, (2R)-1-[4-[(R)-amino(5-chloro-2-hydroxy-4-methylphenyl)methyl]piperidin-1-yl]-2,3-dihydroxypropan-1-one Trifluoroacetic Acid], the IC50 at Kv1.3 potassium channel was under 0.5 µM; against hERG channel, over 30 µM.
